Assay results published in article PMC5017735, “A Novel Peptide Derived from the Fusion Protein Heptad Repeat Inhibits Replication of Subacute Sclerosing Panencephalitis Virus In Vitro and In Vivo” (PLoS ONE, 2016).
Peptide text beside a SMILES is read from it.

Tests used:
SSPE Yamagata-1 strain [1] = test: Viral plaque reduction assay, SSPE virus in Vero cells; assay type: cell-based, SSPE virus (variant measles virus); conditions: for inhibition of plaque formation compared with the control group, SSPE Yamagata-1 strain (peptide screening): peptide 10 μM, Vero cells and Vero/SLAM cells (Fig 2C), duplicate, at least twice independently; for EC50: plaque reduction, SSPE Yamagata-1 strain, mean ± SD; for EC50 / SI, SSPE virus (Vero cells): Vero cells; for SI, SSPE virus (Vero cells): selectivity index, ratio of CC50 relative to EC50
Description: (§1) African green monkey kidney (Vero) cells and Vero cells expressing human SLAM (Vero/SLAM cells) were used in all experiments. The growth medium for Vero cells comprised minimal essential medium (MEM) supplemented with 10% heat-inactivated newborn bovine serum, penicillin G (100 IU/ml), streptomycin (100 μg/ml), and L-glutamine (300 μg/ml). The same growth medium, which was further supplemented with G418 (400 μg/ml), was used for Vero/SLAM cells. Cells were seeded into the wells (22 mm) of 12-well tissue culture plates at 1 × 10^5 cells/well and incubated at 37°C in a 10% CO2 incubator for 3 days, at which time they had just reached confluence. The virus strains used were human MV Edmonston strain and SSPE Yamagata-1 [34], which was originally isolated from the brain of an SSPE patient. The Edmonston strain of MV was used to inoculate Vero/SLAM cells and harvested after freeze–thawing infected cells. The SSPE Yamagata-1 strain was cultured in Vero/SLAM cells, harvested by trypsinization, prepared as an infected cell suspension in the Vero/SLAM cell medium supplemented with 10% dimethyl sulfoxide, and stored at −80°C until use.
(§2) Screening was performed to evaluate the antiviral effects of each synthetic peptide against the MV and SSPE viruses using the viral plaque reduction assay. Based on the results of the peptide screening, the 50% effective concentration (EC50), i.e., the concentration of compounds required to inhibit virus plaque formation by 50%, was also determined. The Human MV Edmonston strain was used to produce cell-free virions, which yielded a reproducible number of syncytia [generally 200–300 plaque-forming units (PFUs)] in the control wells. The SSPE virus was also used to yield a reproducible number of syncytia (generally 70–150 PFU) in control wells. In the peptide screening assay, each synthetic peptide was used at a concentration of 10 μM. IFN-α and enfuvirtide, a peptide fusion inhibitor of HIV-1, were used as controls at a concentration of 250 IU/ml and 10 μM, respectively.

SSPE Yamagata-1 strain [2] = test: Viral plaque reduction assay, SSPE virus in Vero/SLAM cells; assay type: cell-based, SSPE virus (variant measles virus); conditions: for EC50: plaque reduction, SSPE Yamagata-1 strain, mean ± SD; for SI, SSPE virus (Vero/SLAM cells): selectivity index, ratio of CC50 relative to EC50
Description: as §1, §2

SSPE virus = test: Time-of-addition experiments, SSPE virus in Vero cells; assay type: cell-based, SSPE virus (variant measles virus)
Description: Synthetic peptides, M1 and M2EK (10 μM each) were used in time-of-addition experiments. Each peptide was added to Vero cells at three distinct time points: prior to infection (pretreatment with the compound), at the same time as the virus infection (simultaneous infection), or post-infection (post-entry). The SSPE virus was prepared to yield a reproducible number of syncytia in untreated control wells (approximately 50–100/well). In the pretreatment assay, peptide was added to confluent cells and incubated at 37°C for 30 min, and the cell cultures were washed with MEM before viral inoculation. Cells were then challenged with the SSPE virus at 0°C for 30 min. In the simultaneous infection assay, SSPE virus with peptide was inoculated at 0°C for 30 min. After the adsorption, the cell cultures were subsequently washed with MEM, and growth medium containing 0.75% methylcellulose was overlaid on the cell cultures, followed by incubation for 3 days in both pretreatment and simultaneous infection assays. In the post-entry assay, cells were challenged with the SSPE virus at 0°C for 30 min. After adsorption, the cell cultures were subsequently washed with MEM and peptide, which was prepared in growth medium containing 0.75% methylcellulose, was subsequently overlaid on the cell cultures at distinct time points. The starting point when cells were incubated at 0°C for 30 min was defined as t0.

MV Edmonston strain = test: Viral plaque reduction assay, measles virus in Vero cells; assay type: cell-based; conditions: for EC50: plaque reduction, MV Edmonston strain, mean ± SD; for EC50 / SI, measles virus (Vero cells): Vero cells; for SI, measles virus (Vero cells): selectivity index, ratio of CC50 relative to EC50
Description: as §1, §2

[3] = In vivo toxicity, mice administered peptides alone; design: species or system BALB/cAJcl-nu/nu mice; conditions: peptide 100 μM intracranial, no virus infection
Description: Based on a previous report, but with slight modifications, 3-week-old female BALB/cAJcl-nu/nu mice (CLEA Japan Inc., Tokyo, Japan) were used in the animal experiments. Mice were divided in four groups (n = 6 for each cage) and housed with free access to both water and food and monitored daily. The mice were SSPE virus-infected or mock-infected (MEM alone) intracranially. An SSPE virus-infected cell suspension containing 250 PFU/ 30 μl (100% lethal dose) was inoculated into the subarachnoid space of nude mice using a 27-gauge double needle at a depth of 2 mm. Each compound was prepared at a concentration of 100 μM and was injected intracranially at 0 (mixed with viruses), 6, and 24 h after the initial virus inoculation. All injections were performed under inhalational anesthesia with isoflurane. Each mouse was checked for neurological symptoms and weighed daily. The ethical endpoint was defined as <75% of their maximum weight because most mice would die within 24 h. On attaining this endpoint, the mice were sacrificed by cervical dislocation under inhalational anesthesia with isoflurane. In this experiment, five mice died of natural causes before the ethical endpoint; however, all mice had neurological symptoms and 9.5%, 13.2%,14.5%, 15.8%, 16.4% weight loss (one each) relative to their maximum weight. This study was approved by the control of the Animal Research Committee in accordance with the Guidelines on Animal Experiments in Fukushima Medical University and the Rules for the Protection and Care of Animals (approval number: 23038).

Vero/SLAM cells = test: Methyl tetrazolium cytotoxicity assay, Vero/SLAM cells; assay type: cell-based, African green monkey; conditions: confluent Vero/SLAM cells, 24 h, 37°C
Description: (§3) Peptide cytotoxicity was determined using the methyl tetrazolium assay. Five-fold serial dilutions of peptides were added to confluent Vero or Vero/SLAM cells. Cells were then incubated at 37°C for 24 h, and the number of viable cells was determined using 3-(4,5-dimethyllthiazol-2-yl)-2,5-diphenylterazolium bromide (Sigma–Aldrich, Tokyo, Japan). The 50% cytotoxic concentration (CC50), which was defined as the concentration required to reduce the cell viability by 50% relative to that of untreated controls, was determined. The selectivity index (SI) was defined as the ratio of the CC50 relative to the EC50 value.

Vero cells = test: Methyl tetrazolium cytotoxicity assay, Vero cells; assay type: cell-based, African green monkey; conditions: confluent Vero cells, 24 h, 37°C
Description: as §3

Compound | inhibition of plaque formation compared with the control group, SSPE Yamagata-1 strain (peptide screening) (SSPE Yamagata-1 strain [1]) | EC50 (SSPE Yamagata-1 strain [1]) [nM] | SI, SSPE virus (Vero cells) (SSPE Yamagata-1 strain [1]) | EC50 (SSPE Yamagata-1 strain [2]) [nM] | SI, SSPE virus (Vero/SLAM cells) (SSPE Yamagata-1 strain [2]) | viral inhibitory effect, peptide added post-infection (post-entry) (SSPE virus; peptide 10 μM overlaid at distinct time points after adsorption) | viral plaque numbers, peptide added before viral adsorption or at the same time as virus inoculation (SSPE virus; peptide 10 μM, pretreatment 37°C 30 min or simultaneous with SSPE virus 0°C 30 min, compared with control) | EC50 (MV Edmonston strain) [nM] | SI, measles virus (Vero cells) (MV Edmonston strain) | survival of mice administered with peptides alone, with no symptoms [3] [days] | CC50, SSPE virus (Vero/SLAM cells) (Vero/SLAM cells) [nM] | CC50, SSPE virus (Vero cells) (Vero cells) [nM] | CC50, measles virus (Vero cells) (Vero cells) [nM] | inhibition of MV Edmonston plaque formation compared with the control group (peptide screening) (MV Edmonston strain; peptide 10 μM (Fig 2C), duplicate, at least twice independently)
CC[C@H](C)[C@H](NC(C)=O)C(=O)N[C@@H](CO)C(=O)N[C@@H](CC(C)C)C(=O)N[C@@H](CCC(=O)O)C(=O)N[C@@H](CCCNC(=N)N)C(=O)N[C@@H](CC(C)C)C(=O)N[C@@H](CC(=O)O)C(=O)N[C@H](C(=O)NCC(=O)N[C@H](C(=O)N[C@@H](CC(N)=O)C(=O)N[C@@H](CC(C)C)C(=O)NCC(=O)N[C@@H](CC(N)=O)C(=O)N[C@@H](C)C(=O)N[C@H](C(=O)N[C@@H](C)C(=O)N[C@@H](CCCCN)C(=O)N[C@@H](CC(C)C)C(=O)N[C@@H](CCC(=O)O)C(=O)N[C@@H](CC(=O)O)C(=O)N[C@@H](C)C(=O)N[C@@H](CCCCN)C(=O)N[C@@H](CCC(=O)O)C(=O)N[C@@H](CC(C)C)C(=O)N[C@@H](CC(C)C)C(=O)N[C@@H](CCC(=O)O)C(=O)N[C@@H](CO)C(=O)N[C@@H](CO)C(=O)N[C@@H](CC(=O)O)C(=O)N[C@@H](CCC(N)=O)C(=O)N[C@H](C(=O)N[C@@H](CC(C)C)C(=O)N[C@@H](CCCNC(=N)N)C(=O)N[C@@H](CO)C(N)=O)[C@@H](C)CC)[C@@H](C)CC)[C@@H](C)O)C(C)C [Peptide M1] | > 97% | 10 ± 10 | >7519 | 10 ± 10 | >9524 | observed in a time-dependent manner, particularly within 24 h | no reduction in viral plaque numbers | 30 ± 10 | >3663 | > 45 | – | – | – | –
enfuvirtide | – | – | – | – | – | – | – | – | – | > 45 | >100000 | >100000 | >100000 | –
CC[C@H](C)[C@H](NC(C)=O)C(=O)N[C@@H](CCC(=O)O)C(=O)N[C@@H](CCC(=O)O)C(=O)N[C@@H](CCC(=O)O)C(=O)N[C@@H](CCCNC(=N)N)C(=O)N[C@@H](CCCCN)C(=O)N[C@@H](CCCCN)C(=O)N[C@H](C(=O)N[C@@H](CCC(=O)O)C(=O)N[C@@H](CCC(=O)O)C(=O)N[C@@H](CC(N)=O)C(=O)N[C@@H](CC(C)C)C(=O)N[C@@H](CCCCN)C(=O)N[C@@H](CCCCN)C(=O)N[C@@H](C)C(=O)N[C@@H](CCC(=O)O)C(=O)N[C@@H](CCC(=O)O)C(=O)N[C@@H](CCCCN)C(=O)N[C@@H](CC(C)C)C(=O)N[C@@H](CCCCN)C(=O)N[C@@H](CCCCN)C(=O)N[C@@H](C)C(=O)N[C@@H](CCC(=O)O)C(=O)N[C@@H](CCC(=O)O)C(=O)N[C@@H](CC(C)C)C(=O)N[C@@H](CC(C)C)C(=O)N[C@@H](CCCCN)C(=O)N[C@@H](CCCCN)C(=O)N[C@@H](CO)C(=O)N[C@@H](CCC(=O)O)C(=O)N[C@@H](CCC(=O)O)C(=O)N[C@H](C(=O)N[C@@H](CC(C)C)C(=O)N[C@@H](CCCCN)C(=O)N[C@@H](CCCCN)C(N)=O)[C@@H](C)CC)C(C)C [Peptide M1EK] (Ac-IEEERKKVEENLKKAEEKLKKAEELLKKSEEILKK-NH2) | > 97% | 120 ± 50 | – | 170 ± 20 | – | – | – | – | – | – | – | – | – | –
Enfuvirtide | lower antiviral activity | > 10000 | – | > 10000 | – | – | – | > 10000 | – | – | – | – | – | lower antiviral activity
CC[C@H](C)[C@H](NC(=O)[C@H](C)NC(=O)[C@H](CC(N)=O)NC(=O)CNC(=O)[C@H](CC(C)C)NC(=O)[C@H](CC(N)=O)NC(=O)[C@@H](NC(=O)CNC(=O)[C@@H](NC(C)=O)C(C)C)[C@@H](C)O)C(=O)N[C@@H](C)C(=O)N[C@@H](CCCCN)C(=O)N[C@@H](CC(C)C)C(=O)N[C@@H](CCC(=O)O)C(=O)N[C@@H](CC(=O)O)C(=O)N[C@@H](C)C(=O)N[C@@H](CCCCN)C(=O)N[C@@H](CCC(=O)O)C(=O)N[C@@H](CC(C)C)C(=O)N[C@@H](CC(C)C)C(=O)N[C@@H](CCC(=O)O)C(=O)N[C@@H](CO)C(=O)N[C@@H](CO)C(=O)N[C@@H](CC(=O)O)C(=O)N[C@@H](CCC(N)=O)C(=O)N[C@H](C(=O)N[C@@H](CC(C)C)C(=O)N[C@@H](CCCNC(=N)N)C(=O)N[C@@H](CO)C(=O)N[C@@H](CCSC)C(=O)N[C@@H](CCCCN)C(=O)NCC(=O)N[C@@H](CC(C)C)C(=O)N[C@@H](CO)C(=O)N[C@@H](CO)C(=O)N[C@H](C(N)=O)[C@@H](C)O)[C@@H](C)CC [Peptide M2] | – | 260 ± 170 | >377 | 480 ± 220 | >209 | – | – | 120 ± 40 | >805 | – | >100000 | >100000 | >100000 | –
